The source of these data is US8853264B2, “Use of lignan compounds for treating or preventing inflammatory disease” (Newtree Industry Co., Ltd., priority 2005, dated 2014).

For one assay, the system named is IL-13 mRNA. Briefly: IL-13 mRNA level in skin lesion (RT-PCR). The format is in vivo, NC/Nga mice. As to the method:
(§1) In order to induce atopic dermatitis, 100 mg of mite antigen cream was applied on the ear, occipital region and back of NC/Nga mouse (9 to 11 weeks old), except for the negative control group, 3 times a week, 2 hours after the application of 4% SDS solution. Three weeks later, it was observed whether atopic dermatitis was induced by checking skin rash, erythema, cornification, or the like. Atopic dermatitis was induced in all groups except for the negative control group. […] Transepidermal water loss (TEWL), skin hydration and erythema index were measured one day before the end of the test. […]
(§2) After the end of the experiment, skin tissue was isolated from the occipital region to the back of the mouse, immersed in liquid nitrogen, pulverized using a mortar, dissolved in 500 μL of TRIzol® (InvitrogenLife Technologies, USA), and then homogenized using a homogenizer in order to measure mRNA level of cytokines in skin lesion. […] After the centrifuge, the supernatant was discarded and the remaining pellets were washed 2 times with 100% ethanol, dried, and then subjected to RNA quantification by spectrophotometry. […]

For the next assay, the system named is IgE. The experiment in a line: Total IgE in serum, mite antigen-induced atopic dermatitis. The format is in vivo, NC/Nga mice. The conditions noted are these: for IgE: 2 weeks, serum; for total IgE level compared to the positive control group: p<0.01. As to the method: 8-week-old NC/Nga mice (20-25 g) were purchased from Chungang Lab. Animal. After adapting for 1 week, the NC/Nga mouse was anesthetized with 90% ethyl ether (Ducsan, Korea) and hair was removed from the occipital region and the back of the mouse using depilatory cream (Reckitt Benckiser, France). After allowing micro wound healing for a day, 100 mg of mite antigen cream (Biostir, Inc. Japan) comprising Dermatophagoides farina, which causes atopic dermatitis, as a main ingredient was evenly applied on the ear, occipital region and back, 3 times a week (for 5 weeks, from week 9 to week 13). 2 hours before application of the mite antigen cream, 4% SDS solution was applied at the same area to increase transdermal absorption of the mite antigen cream by inducing the breakdown of skin fats and cuticle layer. From week 3 following the application, IgE value was measured to quantitate the degree of atopic dermatitis. Also during the drug treatment period (week 12 to week 13), 100 mg of the mite antigen cream was applied 3 times a week to prevent spontaneous healing of the atopic dermatitis.
In order to induce atopic dermatitis, 100 mg of mite antigen cream was applied on the ear, occipital region and back of NC/Nga mouse (9 to 11 weeks old), except for the negative control group, 3 times a week, 2 hours after the application of 4% SDS solution. Three weeks later, it was observed whether atopic dermatitis was induced by checking skin rash, erythema, cornification, or the like. Atopic dermatitis was induced in all groups except for the negative control group. For drug treatment and evaluation of therapeutic effect, mice were grouped into 12 groups, 6 oral administration groups and 6 topical application groups (each consisting of negative control group, positive control group, macelignan low conc. group, macelignan high conc. group, nutmeg extract low conc. group, and nutmeg extract high conc. group), with n=5 per cage. During the following drug treatment and evaluation period of 2 weeks (12 to 13 weeks old), the negative control groups, which had not been treated with 4% SDS solution and mite antigen cream, were treated with physiological saline (oral administration group) or base cream (topical application group) every day, and the positive control groups, which had been treated with 100 mg of mite antigen cream 2 hours after application of 4% SDS solution, 3 times every week, were treated with physiological saline (oral administration group) or base cream (topical application group). The oral administration groups were treated with 100 mg of mite antigen cream 2 hours after application of 4% SDS solution, 3 times every week, and were treated with macelignan or nutmeg extract at low concentration (50 mg/kg/day) or high concentration (150 mg/kg/day) every day. The topical application groups were treated with 100 mg of mite antigen cream 2 hours after application of 4% SDS solution, 3 times every week, and were treated with macelignan cream or nutmeg extract cream at low concentration (20 mg/kg/day) or high concentration (60 mg/kg/day) every day. Transepidermal water loss (TEWL), skin hydration and erythema index were measured one day before the end of the test. Serum was obtained by retro-orbital blood sampling. After the end of the test (14 weeks old) spleen and skin tissues from occipital region and back were sampled and stored at −70° C. ALN (axillary lymph node) was stored in DMEM containing 2% FBS (fetal bovine serum). The skin tissues were stored in 10% formalin solution.
Blood was taken by retro-orbital blood sampling using a capillary tube (Chase Scientific Glass, Inc., USA), which was centrifuged at 13,000 rpm to obtain serum. IgE level was measured using a mouse IgE ELISA kit (Immunology Consultants Laboratory, Inc., USA).

For the next assay, the system named is TNF-α mRNA. The experiment in a line: TNF-α mRNA level in skin lesion (RT-PCR). The format is in vivo, NC/Nga mice. As to the method:
as §1, §2

Assay [1] in a line: Clinical visual evaluation of skin lesion, atopic dermatitis model. The format is in vivo, NC/Nga mice. Here is the method:
as §1, with “group. For drug treatment and evaluation of therapeutic effect, mice were grouped into 12 groups, 6 oral administration groups and 6 topical application groups (each consisting of negative control group, positive control group, macelignan low conc. group, macelignan high conc. group, nutmeg extract low conc. group, and nutmeg extract high conc. group), with n=5 per cage.” for “group.”
Prior to the end of the experiment, the lesions of the mice were photographed. The change of the skin lesion was evaluated visually.

Assay [2] can be described thus: Airway hypersensitivity test, allergen-induced asthma. The format is in vivo, C57BL/6 (B6) male mice. Particulars: oral administration in corn oil, every day; vs vehicle group; p<0.05. As to the method:
5 μL of allergen, AP (aspergillus protease, 1 mg/mL, Sigma-Aldrich, St. Louis, Mo.) was mixed with 45 μL of OVA (chicken egg ovalbumin, 0.5 mg/mL, Sigma-Aldrich). After 3 intraperitoneal injections with 4-day intervals, asthma was induced by 2 intranasal challenges with 4-day interval. The intranasal challenge was performed under isoflurane inhalational anesthesia. Macelignan dissolved in corn oil was orally administered every day.
Within 24 hours after the last allergen challenge, the mouse was anesthetized by intraperitoneal injection of 0.1 mg/g sodium pentobarbital. After tracheal intubation, flexiVent (Scireq®, Montreal, Canada) was connected to maintain stable ventilation. Thereafter, striated muscle was relaxed by intravenous (IV) administration of 0.08 mg/kg pancuronium (Sigma-Aldrich). Following airway hypersensitivity test by IV administration of acetylcholine (Sigma-Aldrich), 1 mL of DPBS (Dulbecco's phosphate buffered saline) was injected twice into the intubation tube using a syringe for bronchioalveolar lavage. […]
For airway hypersensitivity test, the mouse was anesthetized using sodium pentobarbital and, after tracheal intubation, flexiVent was connected to maintain stable ventilation. […] Immediately after IV administration of acetylcholine, airway resistance was measured 3 times by snapshot. The mean value was recorded as airway resistance.

[3] abbreviates: oral administration 50 and 150 mg/kg.
Where [4] appears, read: topical application 20 and 60 mg/kg.

Each structure is given as a SMILES string.

Turning to `COc1cc(C[C@H](C)[C@H](C)Cc2ccc3c(c2)OCO3)ccc1O` (single isomer, unassigned) [macelignan], the figures for the “IL-13 mRNA level in skin lesion” value in the assay with IL-13 mRNA (setting [3]) and in the assay with IL-13 mRNA (setting [4]) were “statistically significant effect of decreasing IL-13 mRNA level” and “effect of decreasing IL-13 mRNA level”, respectively. Moreover, the IgE with IgE (oral administration 50 mg/kg/day) is 19.6 ± 13.5 µg/mL; with IgE (oral administration 150 mg/kg/day) it was 16.6 ± 5.3 µg/mL; with IgE (topical application (cream) 20 mg/kg/day) it was 22.1 ± 3.6 µg/mL; with IgE (topical application (cream) 60 mg/kg/day), 18.6 ± 4.1 µg/mL. The “total IgE level compared to the positive control group” value with IgE (setting [3]) and in the assay with IgE (setting [4]) was “statistically significant decrease in total IgE level” throughout. Besides, the “TNF-α mRNA level in skin lesion” value is “statistically significant effect of decreasing TNF-α mRNA level” with TNF-α mRNA (setting [3]) and “effect of decreasing TNF-α mRNA level” in the assay on TNF-α mRNA (setting [4]). The “clinical visual evaluation of skin lesion” value was “remarkable decrease in erythema/hemorrhage, dryness/scarring, edema, excoriation/erosion and lichenification and improvement in atopic dermatitis” in assay [1] (setting [3]); “remarkable decrease in erythema/hemorrhage, dryness/scarring, edema, excoriation/erosion and lichenification and improvement in atopic dermatitis” in assay [1] (setting [4]). Further, the airway hypersensitivity entry in assay [2] is listed as “statistically significant decrease of airway hypersensitivity”.
